Test results taken from PMC12676312, “Evaluation of Antiviral Activity of N‑Phenyl-2-Phenoxyacetamides Derived from Carvacrol against Mayaro Virus: In Vitro Analyses and In Silico Insights” (ACS Omega, 2025).

Key:
Vero cells = test system: Vero cells; set-up: method as in previous study of our group; conditions: ref previous study of our group; cited from earlier work
Mayaro virus (MAYV) [1] = assay type: cell-based, Mayaro virus (ATCC VR 66, strain TR 4675); conditions: Vero cells infected with MAYV (MOI 1) pre-treated 1 h with compound at its CC50-based concentration or 500 μM; 48 h; MTT; infected control 0%, uninfected 100%
Protocol: Vero cells (ATCC CCL-81) were used in all in vitro assays. Cells were cultured in DMEM medium supplemented with 2% fetal bovine serum (FBS), penicillin, and streptomycin, and incubated at a constant temperature of 37 °C under a controlled atmosphere of 5% CO2. Mayaro virus (ATCC VR 66, strain TR 4675) was initially propagated in C6/36 cells cultured in L-15 medium supplemented with 2% FBS, incubated at 28 °C. For viral titer determination, Vero cells (10^5 cells/well) were seeded in 24-well plates and cultured for approximately 24 h to achieve 80% confluence. Subsequently, the culture medium was replaced with 10-fold serial dilutions of the viral aliquot. The plate was maintained under constant agitation for 1 h to facilitate viral adsorption. The medium was then replaced with a semisolid medium (incomplete DMEM and 1% carboxymethylcellulose at a 2:1 ratio). Plates were incubated for 48 h under the aforementioned conditions, and cytopathic effects were monitored. After this period, cells were fixed with 10% formaldehyde and stained with 5% crystal violet solution for plaque counting. The mean number of plaques was used to determine the number of plaque-forming units (PFU), and the viral titer was expressed as PFU/mL.
To evaluate the antiviral potential of the molecules under study, an MTT (3-(4,5-dimethylthiazol-2-yl)-2,5-diphenyltetrazolium bromide) reduction assay was employed. Vero cells were seeded in 96-well plates (10^4 cells/well) and cultured until reaching approximately 80% confluence. […] For compounds with undetermined CC50 values, a concentration of 500 μM (the highest concentration tested in the previous study) was used. After incubation, the viral suspension was removed, DMEM medium was added, and cells were incubated for 48 h at 37 °C under a 5% CO2 atmosphere. Cell viability was determined by absorbance reading at 540 nm after solubilization of formazan crystals with DMSO, with the positive control (Vero cells infected with MAYV) defined as 0% cell viability and the negative control (uninfected Vero cells) defined as 100% cell viability. The compound providing the greatest cellular protection was selected for subsequent assays.

Mayaro virus (MAYV) [2] = assay: Internalization inhibition assay (plaque reduction); assay type: cell-based, Mayaro virus (ATCC VR 66, strain TR 4675); conditions: concentrations between 500 μM and 62.5 μM; Vero cells
Protocol: To evaluate whether the compound affects the internalization step, 24-well plates (10^5 cells/well) were cooled at 4 °C for 30 min. The culture medium was removed, and cells were incubated with MAYV (100 PFU/well) at 4 °C for 2 h. Cells were washed with cold PBS, and 1 mL of DMEM was added followed by incubation for 5 min at 37 °C. Subsequently, different concentrations of the compound were added and incubated for 1 h at 37 °C. Cells were then washed with cold PBS and citrate buffer. Finally, semisolid medium (DMEM + 1% carboxymethylcellulose) was added, and plates were incubated at 37 °C for 48 h. Cells were fixed and stained for plaque counting. DMEM was used as the negative control, and 100 PFU of MAYV was used as the positive control (untreated).

Mayaro virus (MAYV) [3] = assay: Post-treatment assay (plaque reduction); assay type: cell-based, Mayaro virus (ATCC VR 66, strain TR 4675); conditions: Vero cells treated after MAYV infection, any tested concentration
Protocol: To determine whether the compound acts after viral infection, Vero cells cultured in 24-well plates (10^5 cells/well) were initially infected with 100 μL of MAYV (100 PFU) and incubated under constant agitation for 1 h. The viral suspension was removed and replaced with 100 μL of the compound at different concentrations, followed by incubation for 3 h at 37 °C with periodic agitation. Subsequently, the medium was replaced with semisolid medium (DMEM + 1% carboxymethylcellulose). After 48 h of incubation at 37 °C and 5% CO2, the cells were fixed with 10% formaldehyde and stained with 5% crystal violet for plaque counting. For the negative control, DMEM was used, and for the positive control, 100 PFU of MAYV (untreated).

Mayaro virus (MAYV) [4] = assay: Pretreatment assay (plaque reduction); assay type: cell-based, Mayaro virus (ATCC VR 66, strain TR 4675); conditions: Vero cells pretreated 3 h with different concentrations, then infected
Protocol: To determine whether the compound exerts a protective effect on cells prior to viral infection, Vero cells cultured in 24-well plates (10^5 cells/well) were treated for 3 h at 37 °C with 100 μL of the compound at different concentrations, with periodic agitation. Subsequently, the medium was replaced with 100 μL of a solution containing MAYV (100 PFU), and the plates were incubated under constant agitation for 1 h. The viral suspension was then replaced with a semisolid medium (DMEM + 1% carboxymethylcellulose), and the plates were incubated for 48 h at 37 °C under a 5% CO2 atmosphere. Cells were fixed with 10% formaldehyde and stained with 5% crystal violet solution for plaque counting. DMEM was used as the negative control, and 100 PFU of MAYV was used as the positive control (untreated).

Mayaro virus (MAYV) [5] = assay: Virucidal assay (plaque reduction); assay type: cell-based, Mayaro virus (ATCC VR 66, strain TR 4675); conditions: Vero cells
Protocol: To determine the action of the molecule on viral particles, Vero cells cultured in 24-well plates (10^5 cells/well) at 80% confluence were infected with MAYV (100 PFU/well) previously incubated for 1 h with different concentrations of the compound at 37 °C (100 μL/well). Plates were maintained under agitation for 1 h, and afterward, the viral suspension was replaced with 1 mL of semisolid medium (DMEM + 1% carboxymethylcellulose). Plates were incubated for 48 h at 37 °C and 5% CO2 and subsequently fixed with 10% formaldehyde followed by staining with 5% crystal violet solution for plaque counting. DMEM was used as the negative control, and 100 PFU of untreated MAYV was used as the positive control.

Mayaro virus (MAYV) [6] = assay: Adsorption inhibition assay (plaque reduction); assay type: cell-based, Mayaro virus (ATCC VR 66, strain TR 4675); conditions: 4 °C for 2 h, Vero cells, read-out: Decrease in the number of lysis plaques (adsorption inhibition)
Protocol: To assess whether the compound interferes with the viral adsorption step, 24-well plates (10^5 cells/well) were cooled at 4 °C for 30 min. The culture medium was removed, and cells were washed with cold PBS, followed by the addition of 100 μL of a solution containing MAYV (100 PFU) and different concentrations of the compound. Cells were incubated at 4 °C for 2 h and subsequently washed with cold citrate buffer (0.1 M citric acid and 0.1 M sodium citrate) and PBS. Semisolid medium (DMEM + 1% carboxymethylcellulose) was then added, and plates were incubated at 37 °C for 48 h. Cells were fixed and stained for plaque counting as previously described. DMEM was used as the negative control, and 100 PFU of MAYV served as the positive control (untreated).

MAYV = test system: MAYV; set-up: method as in Langedries et al.; conditions: Vero cells; ref Langedries et al.; cited from earlier work

Cc1ccc(C(C)C)cc1OCC(=O)Nc1ccc(Br)cc1 [Compound 6]
CC50 (Vero cells): 182 µM
Antiviral screening (cell viability %) (Mayaro virus (MAYV) [1]): 0%

Cc1ccc(C(C)C)cc1OCC(=O)Nc1ccccc1Cl [Compound 1]
CC50 (Vero cells): 200 µM
Antiviral screening (cell viability %) (Mayaro virus (MAYV) [1]): 62.5%

Cc1ccc(C(C)C)cc1OCC(=O)Nc1ccccc1F [Compound 7]
CC50 (Vero cells): > 500 µM
Antiviral screening (cell viability %) (Mayaro virus (MAYV) [1]): 22.83%

Cc1ccc(C(C)C)cc1OCC(=O)Nc1ccc(Cl)cc1 [Compound 3]
CC50 (Vero cells): 449 µM
Antiviral screening (cell viability %) (Mayaro virus (MAYV) [1]): 0%

Cc1ccc(C(C)C)cc1OCC(=O)Nc1ccccc1Br [Compound 4]
CC50 (Vero cells): 372 µM
Antiviral screening (cell viability %) (Mayaro virus (MAYV) [1]): 0%

Cc1ccc(C(C)C)cc1OCC(=O)Nc1ccccc1 [Compound 10]
CC50 (Vero cells): > 500 µM
Antiviral screening (cell viability %) (Mayaro virus (MAYV) [1]): 0%

Cc1ccc(C(C)C)cc1OCC(=O)Nc1ccc(F)cc1 [Compound 9]
Reduction in the number of lysis plaques (internalization inhibition) (Mayaro virus (MAYV) [2]): about 50%
CC50 (Vero cells): > 500 µM
Viral activity, post-treatment (Mayaro virus (MAYV) [3]): no reduction in viral activity
Number of lysis plaques, pretreatment of cells (Mayaro virus (MAYV) [4]): No reduction in the number of lysis plaques
Reduction in the number of lysis plaques (virucidal activity) (Mayaro virus (MAYV) [5]; 500 μM, MAYV pre-incubated 1 h with compound): approximately 40%
Virucidal activity (number of lysis plaques) (Mayaro virus (MAYV) [5]; concentrations ranging from 500 μM to 31.25 μM): significant reduction in the number of lysis plaques
inhibition at 500 µM (Mayaro virus (MAYV) [6]): ~58%

Cc1ccc(C(C)C)cc1OCC(=O)Nc1cccc(Br)c1 [Compound 5]
CC50 (Vero cells): > 500 µM
Antiviral screening (cell viability %) (Mayaro virus (MAYV) [1]): 50.0%

NC(=O)c1ncn([C@@H]2O[C@H](CO)[C@@H](O)[C@H]2O)n1 [ribavirin]
Antiviral activity against MAYV (MAYV): no antiviral activity
